From patent US6476018B1, “Fused imidazole derivatives as multidrug resistance modulators” (Janssen Pharmaceutica N.V., priority 1996, dated 2002)

Tested on: P388/ADR (adriamycine resistance cell line) murine leukemia
Experiment: MDR in vivo test: reversal of adriamycine resistance in P388/ADR murine leukemia (survival)
Conditions: P388/ADR mice, daily i.p. day 1-10
Experimental: Male B6D2F1 mice (18-21 g) were injected intraperitoneally with 1×10^5 P388/ADR cells at day 0. Daily intraperitoneal treatment with adriamycine, a test compound of formula (I) or a combination of both was installed from day 1 until day 10. Control animals received the vehicle (15% 4-OH-propyl-β-cyclodextrine in saline). Each group consisted of 8 animals. Adriamycine was dosed at a concentration of 1.25 mg/kg body weight, half the maximal tolerable dose of adriamycine in this treatment schedule. The test compound was dosed at 20, 10, 5, 2.5, 1.25 and 0.63 mg/kg either as single treatment or combined with adriamycine.
Survival of the animals was recorded each day and expressed as a percentage of the median survival in the treated groups compared to the median survival in the control group, the latter to be said to be 100%.
Table C-1 lists the effect of compound 6 and adriamycine on the survival of mice injected with P388/ADR leukemia.
doses of compound 6 and adriamycine are expressed as mg/kg body weight.
the column “Survival Days” give the median day of death after inoculation of 1×10^5 P388/ADR cells at day 0, with the minimum and maximum number of days shown in parantheses
column “% Change vs. ADR” give the difference in MST % of the different groups compared to the MST % in the adriamycine-monotherapy group.

Row | SMILES | Survival Days med (min-max) (compound 6 0 mg/kg, adriamycine 1.25 mg/kg) | Survival Days med (min-max) (compound 6 5 mg/kg, adriamycine 0 mg/kg) | MST % (compound 6 20 mg/kg, adriamycine 0 mg/kg, control = 100%) [oo]
1 | COc1cccc2c1C(=O)c1c(O)c3c(c(O)c1C2=O)C[C@@](O)(C(=O)CO)C[C@@H]3O[C@H]1C[C@H](N)[C@H](O)[C@H](C)O1 [Adriamycine, adriamycine, reference compound] | 13 (12-15) days | – | –
2 | COC(=O)c1cnc2n1CCc1ccccc1C2=C1CCN(CCc2ccc(OCc3ccc4ccccc4n3)cc2)CC1 [Compound 6, methyl 6,11-dihydro-11-[1-[2-[4-(2-quinolinylmethoxy)phenyl]ethyl]-4-piperidinylidene]-5H-imidazo[2,1-b][3]-benzazepine-3-carboxylate] | – | 11.5 (10-13) days | 1
